Experimental data: PMC5268438, “Crystal Structure and Functional Characterization of an Esterase (EaEST) from Exiguobacterium antarcticum” (PLoS ONE, 2017)

What was measured:
EaEST = target: T1, EaEST (Exiguobacterium antarcticum, UniProt A0ABF7PFX0); test: X-ray crystal structure, […] Å; assay type: binding; settings: crystals from 0.2 M ammonium acetate, pH 7.5, no ligand added; active site, ligand assigned from electron density
T1 construct: gene Eab7_1456; recombinant from pET-21a in E. coli BL21(DE3), purified on His-Trap Ni-NTA, no tag removal told; two protomers in the asymmetric unit (542 residues modelled); catalytic triad Ser96, Asp220, His248
T1 sequence (A0ABF7PFX0 1-272): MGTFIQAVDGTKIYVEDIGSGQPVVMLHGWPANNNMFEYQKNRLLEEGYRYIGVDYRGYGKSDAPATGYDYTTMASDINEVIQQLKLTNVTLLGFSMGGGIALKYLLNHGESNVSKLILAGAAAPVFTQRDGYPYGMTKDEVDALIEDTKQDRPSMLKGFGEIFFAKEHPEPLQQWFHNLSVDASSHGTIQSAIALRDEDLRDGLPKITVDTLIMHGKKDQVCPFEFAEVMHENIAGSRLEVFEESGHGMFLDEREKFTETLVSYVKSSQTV

[1] = target: esterase (EaEST) from Exiguobacterium antarcticum B7 (Exiguobacterium antarcticum B7); test: AUC; sedimentation velocity, 20°C, 2 mg/ml EaEST in 25 mM Tris-HCl pH 8.0, 200 mM NaCl, 5 mM MgCl2, 2 mM DTT; 45,000 rpm; c(s) with SEDFIT

Compound	X-ray crystal structure, 1.90 Å (EaEST)	stoichiometry N [1]
CC(=O)OO [peracetate]	the peracetate molecule was perfectly fitted into the electron-density map	
esterase (EaEST) from Exiguobacterium antarcticum B7 (enzyme)		3
